The results in this text go back to patent publication US20240368177A1, “5-AMINO-6,8-DIHYDRO-1H-FURO[3,4-d]PYRROLO[3,2-b]PYRIDINE-2-CARBOXAMIDE DERIVATIVES AS MTA-COOPERATIVE INHIBITORS OF PRMT5” (BeiGene Switzerland GmbH, priority 2023, published 2024).

In one test the test system is HCT116-MTAP-KO. The test can be described thus: Cell killing in HCT116 isogenic pair (Cell Titer-Glo viability), MTAP knock-out cells. It counts as cell-based, human. To be noted: Homo sapiens, HCT-116, 144 h, 6 days incubation, 0-10 μM, * = more than 50% viability inhibition at tested concentration without a full curve. From the text: (§1) HCT116 cell line (ATCC, CCL-247) was isolated from the colon of an adult with colon cancer. It has a mutation in codon 13 of the ras proto-oncogene and can be used as a positive control for PCR assays of mutation in this codon. HCT116-MTAP-KO was knocked-out-MTAP-gene based HCT116, and a single clone was passed for this assay. HCT116-mock-RNA-KO was knocked-out-mock-gene based HCT116 with MTAP wildtype genotype. The base medium for HCT116 isogenic pair is RPMI 1640, HEPES (Gibco, 22400105). To make the complete growth medium, added the following components to the base medium: fetal bovine serum to a final concentration of 10% (Gibco, 10099-141C). The cell line was grown in a humidified 5% CO2 atmosphere at 37° C. and regularly tested for the presence of mycoplasma with MpcoAlert™ PLUS Mycoplasma Detection Kit (Lonzak LT07-710).
(§2) • Seeded HCT116-mock-RNA-KO (4E2/well) or HCT116-MTAP-KO (4E2/well) cells into a 96-well plate (Greiner: 655090), 100 μL/well. • Incubated at 37° C., 5% CO2, overnight. • Added 50 μL fresh growth medium containing serial dilution of test compounds for a final test compound concentration of 0-10 μM to each well. • Incubated at 37° C., 5% CO2, 6 days. • The cell viability was detected by Cell Titer-Glo (Promega, G7573). Added 70 μL of CeliTiter-Glo® reagent in each well. • Incubated at room temperature for 10 minutes to stabilize luminescent signal. • Analyzed with Microplate Reader (TECAN, SPARK) and fit IC50 using Prism® 9.

Another test relates to HCT116-mock-RNA-KO. The test can be described thus: Cell killing in HCT116 isogenic pair (Cell Titer-Glo viability), mock knock-out cells with MTAP wildtype genotype. To be noted: Homo sapiens, HCT-116, 144 h, 6 days incubation, 0-10 μM. It counts as cell-based, human.
From the text: as §1, §2

`N#Cc1cc(F)c(CN(Cc2ncccc2F)C(=O)c2cc3nc(N)c4c(c3[nH]2)COC4)c(F)c1` [Example 43, 5-amino-N-(4-cyano-2,6-difluorobenzyl)-N-((3-fluoropyridin-2-yl)methyl)-6,8-dihydro-1H-furo[3,4-d]pyrrolo[3,2-b]pyridine-2-carboxamide]: the results for the IC50 in the test with HCT116-MTAP-KO and in the test with HCT116-mock-RNA-KO were 2.9 nM and 207 nM, respectively.

With `COC[C@@H](C)N(Cc1ncc(C(F)(F)F)cc1F)C(=O)c1cc2nc(N)c3c(c2[nH]1)COC3` [Example 44, (R)-5-amino-N-((3-fluoro-5-(trifluoromethyl)pyridin-2-yl)methyl)-N-(1-methoxypropan-2-yl)-6,8-dihydro-1H-furo[3,4-d]pyrrolo[3,2-b]pyridine-2-carboxamide], the IC50 with HCT116-MTAP-KO is 8.2 nM; with HCT116-mock-RNA-KO, 568 nM.

For `COC[C@@H](C)N(Cc1ccc(Br)cn1)C(=O)c1cc2nc(N)c3c(c2[nH]1)COC3` [Example 45, (R)-5-amino-N-((5-bromopyridin-2-yl)methyl)-N-(1-methoxypropan-2-yl)-6,8-dihydro-1H-furo[3,4-d]pyrrolo[3,2-b]pyridine-2-carboxamide], the IC50 amounted to 7.2 nM in the test with HCT116-MTAP-KO and 856 nM in the test with HCT116-mock-RNA-KO.

As for `COC[C@@H](C)N(Cc1c(F)cc(C#N)cc1F)C(=O)c1cc2nc(N)c3c(c2[nH]1)COC3` [Example 46, (R)-5-amino-N-(4-cyano-2,6-difluorobenzyl)-N-(1-methoxypropan-2-yl)-6,8-dihydro-1H-furo[3,4-d]pyrrolo[3,2-b]pyridine-2-carboxamide], the IC50 was found to be 9 nM in the test with HCT116-MTAP-KO and 854 nM with HCT116-mock-RNA-KO.

For the compound `Nc1nc2cc(C(=O)N(Cc3ncccc3F)Cc3c(F)cc(F)cc3F)[nH]c2c2c1COC2` [Example 47, 5-amino-N-((3-fluoropyridin-2-yl)methyl)-N-(2,4,6-trifluorobenzyl)-6,8-dihydro-1H-furo[3,4-d]pyrrolo[3,2-b]pyridine-2-carboxamide], the IC50 in the test with HCT116-MTAP-KO was found to be 4.4 nM; in the test with HCT116-mock-RNA-KO, 605 nM.

As for `C[C@H](c1ncccn1)N(Cc1ccc(C2CC2)cn1)C(=O)c1cc2nc(N)c3c(c2[nH]1)COC3` [Example 48, (R)-5-amino-N-((5-cyclopropylpyridin-2-yl)methyl)-N-(1-(pyrimidin-2-yl)ethyl)-6,8-dihydro-1H-furo[3,4-d]pyrrolo[3,2-b]pyridine-2-carboxamide], the IC50 worked out at 8.4 nM in the test with HCT116-MTAP-KO and 625 nM with HCT116-mock-RNA-KO.

`COC[C@@H](C)N(Cc1ncc(Br)cc1F)C(=O)c1cc2nc(N)c3c(c2[nH]1)COC3` [Example 49, (R)-5-amino-N-((5-bromo-3-fluoropyridin-2-yl)methyl)-N-(1-methoxypropan-2-yl)-6,8-dihydro-1H-furo[3,4-d]pyrrolo[3,2-b]pyridine-2-carboxamide]: the IC50 in the test on HCT116-MTAP-KO was 6.1 nM; in the test on HCT116-mock-RNA-KO, 835 nM.

Regarding `C[C@H]1OCc2c1c(N)nc1cc(C(=O)N(Cc3ccc(Br)cn3)Cc3ncccc3F)[nH]c21` [Example 50, (R)-5-amino-N-((5-bromopyridin-2-yl)methyl)-N-((3-fluoropyridin-2-yl)methyl)-6-methyl-6,8-dihydro-1H-furo[3,4-d]pyrrolo[3,2-b]pyridine-2-carboxamide], the results for the IC50 in the test with HCT116-MTAP-KO and in the test on HCT116-mock-RNA-KO were 8.6 nM and 1360 nM, respectively.

Regarding `C[C@H](c1ncccn1)N(Cc1ccc(I)cn1)C(=O)c1cc2nc(N)c3c(c2[nH]1)COC3` [Example 51, (R)-5-amino-N-((5-iodopyridin-2-yl)methyl)-N-(1-(pyrimidin-2-yl)ethyl)-6,8-dihydro-1H-furo[3,4-d]pyrrolo[3,2-b]pyridine-2-carboxamide], the IC50 in the test on HCT116-MTAP-KO turned out to be 7.8 nM; with HCT116-mock-RNA-KO, 558 nM.

As to `C[C@H](c1ncccn1)N(Cc1ncc(C2CC2)cc1F)C(=O)c1cc2nc(N)c3c(c2[nH]1)COC3` [Example 52, (R)-5-amino-N-((5-cyclopropyl-3-fluoropyridin-2-yl)methyl)-N-(1-(pyrimidin-2-yl)ethyl)-6,8-dihydro-1H-furo[3,4-d]pyrrolo[3,2-b]pyridine-2-carboxamide], the IC50 with HCT116-MTAP-KO was determined as 4.6 nM; in the test on HCT116-mock-RNA-KO it was 419 nM.

Consider `COC[C@@H](C)N(Cc1cnc(C2CC2)cn1)C(=O)c1cc2nc(N)c3c(c2[nH]1)COC3` [Example 53, (R)-5-amino-N-((5-cyclopropylpyrazin-2-yl)methyl)-N-(1-methoxypropan-2-yl)-6,8-dihydro-1H-furo[3,4-d]pyrrolo[3,2-b]pyridine-2-carboxamide], for which the half-maximal inhibitory concentration (IC50) with HCT116-MTAP-KO is 34 nM; in the test on HCT116-mock-RNA-KO it was over 10000 nM.

Take `CCN(C(=O)c1cc2nc(N)c3c(c2[nH]1)COC3)[C@@H]1COCc2cc(C(F)(F)F)ccc21` [Example 54, (S)-5-amino-N-ethyl-N-(7-(trifluoromethyl)isochroman-4-yl)-6,8-dihydro-1H-furo[3,4-d]pyrrolo[3,2-b]pyridine-2-carboxamide]: the values for the IC50 in the test with HCT116-MTAP-KO and with HCT116-mock-RNA-KO were 12 nM and 1360 nM, respectively.

On to `CCN(C(=O)c1cc2nc(N)c3c(c2[nH]1)COC3)[C@H]1COCc2cc(C(F)(F)F)ccc21` [Example 55, (R)-5-amino-N-ethyl-N-(7-(trifluoromethyl)isochroman-4-yl)-6,8-dihydro-1H-furo[3,4-d]pyrrolo[3,2-b]pyridine-2-carboxamide], for which the figures for the concentration for half-maximal inhibition (IC50) in the test on HCT116-MTAP-KO and in the test on HCT116-mock-RNA-KO were 1640 nM and over 10000 nM, respectively.

Consider `COC[C@@H](C)N(Cc1ncc(C2CC2)cc1F)C(=O)c1cc2nc(N)c3c(c2[nH]1)COC3` [Example 56, (R)-5-amino-N-((5-cyclopropyl-3-fluoropyridin-2-yl)methyl)-N-(1-methoxypropan-2-yl)-6,8-dihydro-1H-furo[3,4-d]pyrrolo[3,2-b]pyridine-2-carboxamide], for which the figures for the IC50 in the test with HCT116-MTAP-KO and in the test on HCT116-mock-RNA-KO were 5 nM and 146 nM, respectively.

For the compound `C[C@H]1OC[C@H](N(C)C(=O)c2cc3nc(N)c4c(c3[nH]2)COC4)c2ccc(C(F)(F)F)cc21` [Example 57, 5-amino-N-methyl-N-((1R,4R)-1-methyl-7-(trifluoromethyl)isochroman-4-yl)-6,8-dihydro-1H-furo[3,4-d]pyrrolo[3,2-b]pyridine-2-carboxamide], the results for the IC50 with HCT116-MTAP-KO and with HCT116-mock-RNA-KO were 958 nM and over 10000 nM, respectively.

As to `C[C@@H]1OC[C@H](N(C)C(=O)c2cc3nc(N)c4c(c3[nH]2)COC4)c2ccc(C(F)(F)F)cc21` [Example 58, 5-amino-N-methyl-N-((1S,4R)-1-methyl-7-(trifluoromethyl)isochroman-4-yl)-6,8-dihydro-1H-furo[3,4-d]pyrrolo[3,2-b]pyridine-2-carboxamide], the values for the IC50 with HCT116-MTAP-KO and with HCT116-mock-RNA-KO were 1080 nM and over 10000 nM, respectively.

`C[C@@H]1OC[C@@H](N(C)C(=O)c2cc3nc(N)c4c(c3[nH]2)COC4)c2ccc(C(F)(F)F)cc21` [Example 59, 5-amino-N-methyl-N-((1S,4S)-1-methyl-7-(trifluoromethyl)isochroman-4-yl)-6,8-dihydro-1H-furo[3,4-d]pyrrolo[3,2-b]pyridine-2-carboxamide]: the IC50 in the test with HCT116-MTAP-KO was 110 nM; in the test on HCT116-mock-RNA-KO, over 10000 nM.

Regarding `C[C@H]1OC[C@@H](N(C)C(=O)c2cc3nc(N)c4c(c3[nH]2)COC4)c2ccc(C(F)(F)F)cc21` [Example 60, 5-amino-N-methyl-N-((1R,4S)-1-methyl-7-(trifluoromethyl)isochroman-4-yl)-6,8-dihydro-1H-furo[3,4-d]pyrrolo[3,2-b]pyridine-2-carboxamide], the figures for the IC50 in the test on HCT116-MTAP-KO and in the test with HCT116-mock-RNA-KO were 7.3 nM and 857 nM, respectively.

`C[C@@H](c1cnccn1)N(Cc1ncc(Br)cc1F)C(=O)c1cc2nc(N)c3c(c2[nH]1)COC3` [Example 61, (S)-5-amino-N-((5-bromo-3-fluoropyridin-2-yl)methyl)-N-(1-(pyrazin-2-yl)ethyl)-6,8-dihydro-1H-furo[3,4-d]pyrrolo[3,2-b]pyridine-2-carboxamide]: the IC50 with HCT116-MTAP-KO was 808 nM; in the test on HCT116-mock-RNA-KO, over 10000 nM.

In the case of `C[C@H](c1cnccn1)N(Cc1ncc(Br)cc1F)C(=O)c1cc2nc(N)c3c(c2[nH]1)COC3` [Example 62, (R)-5-amino-N-((5-bromo-3-fluoropyridin-2-yl)methyl)-N-(1-(pyrazin-2-yl)ethyl)-6,8-dihydro-1H-furo[3,4-d]pyrrolo[3,2-b]pyridine-2-carboxamide], the concentration for half-maximal inhibition (IC50) with HCT116-MTAP-KO amounted to 17 nM; in the test with HCT116-mock-RNA-KO it was 2080 nM.

With `CN(C(=O)c1cc2nc(N)c3c(c2[nH]1)COC3)[C@@H]1COCc2cc(Br)ccc21` [Example 63, (S)-5-amino-N-(7-bromoisochroman-4-yl)-N-methyl-6,8-dihydro-1H-furo[3,4-d]pyrrolo[3,2-b]pyridine-2-carboxamide], the concentration for half-maximal inhibition (IC50) is 22 nM with HCT116-MTAP-KO and 2500 nM with HCT116-mock-RNA-KO.

On to `CN(C(=O)c1cc2nc(N)c3c(c2[nH]1)COC3)[C@H]1COCc2cc(Br)ccc21` [Example 64, (R)-5-amino-N-(7-bromoisochroman-4-yl)-N-methyl-6,8-dihydro-1H-furo[3,4-d]pyrrolo[3,2-b]pyridine-2-carboxamide], for which the IC50 was 362 nM in the test with HCT116-MTAP-KO and over 10000 nM with HCT116-mock-RNA-KO.
